Test results taken from patent US20240383942A1, “WATER-SOLUBLE ALLOPR[…], AND PREPARATION METHOD THEREFOR AND USE THEREOF” (NANJING MINOVA PHARMACEUTICAL CO., LTD., priority 2021, published 2024).
pIC50: −log10 of the molar value. Where a name gives a salt, the structure may show the parent alone.

Key:
[1] = Saturation solubility by external standard HPLC method; assay type: physicochemical; conditions: thermodynamic from solid; purified water, 25° C., stirred 24 h
Procedure: Preparation of an external standard solution: 50 mg of a compound to be tested was precisely weighed out, added to a 10 mL volumetric flask, and dissolved in a proper amount of purified water by ultrasonication. The solution was diluted to volume and mixed well to give an external standard solution with a concentration of 5.0 mg/mL.
The solution was stirred for dissolution for 24 h at 25° C. and centrifuged. The supernatant was taken and filtered through a 0.45 μm filter membrane, and the filtrate was collected. 1 mL of the filtrate described above was precisely measured out and added to a 5 mL measuring flask. Purified water was added to dilute the filtrate to volume, and the solution was mixed well to give a solution to be tested.
2. Determination of Saturation Solubility by External Standard Method
Chromatographic Conditions
Chromatographic column: Waters XBridge C8 3.5 μm 4.6×100 mm NRT2019-21#, column temperature: 45° C., detection wavelength: 205 nm;
Mobile phase A: a 10 mM/L (NH4)2HPO4 solution, mobile phase B: acetonitrile, isocratic elution A:B=40:60, flow rate: 1.0 mL/min;
Injection volume: 10 μL, run time: 10 min.
Purified water was used as a blank control solution, and the peak areas of the external standard solution and the standard solution were measured using a high performance liquid chromatograph with a UV detector and denoted as Aexternal standard and Ato be tested, respectively.

[2] = In vitro metabolic study in human liver microsome incubation system; conditions: for Concentration of the compound to be tested (parent): human liver microsomes 0.5 mg protein/mL, NADPH, 37° C.
Procedure: Instruments, conditions and parameters: liquid chromatography-mass spectrometry system (LC/MS/MS, Shimadzu LC 30-AD, MS API 4000); the chromatographic column was ACQUITY UPLC BEH C18 column (1.7 μm 2.1×50 mm Column, Part No. 186002350); the mobile phase was acetonitrile-water-formic acid (50:50:0.1); the flow rate was 0.7 mL/min; the injection volume was 5μL; the column temperature was room temperature. An electrospray ionization (ESI) source was adopted with a spray voltage of 4.8 KV; the capillary temperature (TEM) was 300° C.; the sheath gas was N2, and the flow rate was 10 psi; the auxiliary gas was N2, and the flow rate was 1 psi; the collision-induced dissociation (CID) gas was Ar, and the pressure was 1.5 mTorr. The mass spectrometry scan mode was mass spectrometry multiple reaction monitoring (MRM), and the positive ion mode was used for detection.
About 10 mg of each of the samples to be tested was precisely weighed out and dissolved in 0.1 mL of DMSO, and the solution was stepwise diluted with purified water to prepare 10 μM and 1 μM standard stock solutions. In an ice bath, the detection incubation system was prepared according to Table 3. NADPH was added to the incubation system (see Table 4 for its composition) to start a reaction, and 50 μL of the resulting mixture was taken immediately and added to 150 μL of acetonitrile as a time-zero sample and a 1 μM standard curve sample. Another 1 μM standard stock solution was added to the incubation system, and 50 μL of the resulting mixture was taken immediately and added to 150 μL of acetonitrile as a 0.1 μM standard curve sample. […] Each sample was shaken and centrifuged at 18,000 g for 10 min, and a sample of the supernatant was taken and injected for LC/MS/MS analysis.

[3] = biological target: hERG potassium channel (Homo sapiens, UniProt Q12809); experiment: Manual patch clamp assay of hERG potassium channel current in CHO-hERG cells
Chain of hERG potassium channel (Q12809 whole entry): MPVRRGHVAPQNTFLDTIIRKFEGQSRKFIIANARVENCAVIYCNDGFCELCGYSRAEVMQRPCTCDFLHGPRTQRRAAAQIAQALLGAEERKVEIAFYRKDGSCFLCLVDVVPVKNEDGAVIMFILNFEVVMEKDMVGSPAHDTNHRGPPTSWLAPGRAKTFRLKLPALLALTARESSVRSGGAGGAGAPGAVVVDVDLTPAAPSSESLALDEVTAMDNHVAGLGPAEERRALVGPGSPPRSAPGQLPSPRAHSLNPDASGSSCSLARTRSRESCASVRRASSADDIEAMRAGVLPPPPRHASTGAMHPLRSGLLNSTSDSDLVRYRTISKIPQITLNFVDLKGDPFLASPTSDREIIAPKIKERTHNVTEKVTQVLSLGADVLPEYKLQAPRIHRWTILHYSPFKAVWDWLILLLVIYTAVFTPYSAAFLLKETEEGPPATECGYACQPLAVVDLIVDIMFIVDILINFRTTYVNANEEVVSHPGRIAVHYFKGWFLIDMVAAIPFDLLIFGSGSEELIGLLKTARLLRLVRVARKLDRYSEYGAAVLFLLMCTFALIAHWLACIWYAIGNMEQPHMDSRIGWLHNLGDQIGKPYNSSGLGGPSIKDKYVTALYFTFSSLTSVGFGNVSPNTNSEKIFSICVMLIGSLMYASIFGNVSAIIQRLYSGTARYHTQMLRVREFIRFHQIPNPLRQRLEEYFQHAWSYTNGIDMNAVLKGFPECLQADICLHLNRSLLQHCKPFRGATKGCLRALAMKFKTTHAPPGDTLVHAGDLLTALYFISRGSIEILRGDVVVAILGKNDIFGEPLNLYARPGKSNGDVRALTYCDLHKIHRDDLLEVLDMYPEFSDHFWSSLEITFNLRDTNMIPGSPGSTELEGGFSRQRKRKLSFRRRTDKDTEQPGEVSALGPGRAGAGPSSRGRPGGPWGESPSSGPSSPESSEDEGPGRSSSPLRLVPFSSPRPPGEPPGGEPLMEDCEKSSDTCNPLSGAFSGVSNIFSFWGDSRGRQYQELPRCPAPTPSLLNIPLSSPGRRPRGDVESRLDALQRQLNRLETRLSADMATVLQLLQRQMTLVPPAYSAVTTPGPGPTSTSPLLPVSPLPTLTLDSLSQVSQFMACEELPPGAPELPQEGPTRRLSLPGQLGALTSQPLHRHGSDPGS

[4] = in the human body; cited from earlier work

Row | SMILES | solubility at 24 h [1] [mg/mL] | Concentration of the compound to be tested (parent) ([2]; incubation time 0 min) [nM] | Concentration of the compound to be tested (parent) ([2]; incubation time 5 min) [nM] | Concentration of the compound to be tested (parent) ([2]; incubation time 15 min) [nM] | Concentration of the compound to be tested (parent) ([2]; incubation time 30 min) [nM] | Concentration of the compound to be tested (parent) ([2]; incubation time 45 min) [nM] | Concentration of the compound to be tested (parent) ([2]; incubation time 60 min) [nM] | concentration of allopregnanolone resulting from metabolism reaching a stable level (in words) ([2]; liver microsome system) | pIC50 [3] | plasma half-life [4]
1 | [2H]C(C)(C)[C@H](N)C(=O)O[C@@H]1CC[C@@]2(C)[C@@H](CC[C@@H]3[C@@H]2CC[C@]2(C)[C@@H](C(C)=O)CC[C@@H]32)C1 [Compound 1 hydrochloride] | 31.2 |  |  |  |  |  |  |  |  | 
2 | CC(=O)[C@H]1CC[C@H]2[C@@H]3CC[C@H]4C[C@H](OC(=O)[C@@H](N)C(C)C)CC[C@]4(C)[C@H]3CC[C@]12C [Comparative compound 1] |  | 1000 | 801 | 680 | 484 | 306 | 256 | unable to achieve a stable level | 6.11 | 
3 | O=C(O)Cc1ccccc1Nc1c(Cl)cccc1Cl [Diclofenac, diclofenac] |  | 1000 | 374 | 77 | 8 | 1 | 1 |  |  | 
4 | CC(=O)[C@H]1CC[C@H]2[C@@H]3CC[C@H]4C[C@H](O)CC[C@]4(C)[C@H]3CC[C@]12C [Allopregnanolone, 3α-OH-5α-pregnan-20-one] | < 0.01 | 1000 | 626 | 414 | 259 | 150 | 119 |  |  | about 45 minutes
5 | CC(=O)[C@H]1CC[C@H]2[C@@H]3CC[C@H]4C[C@H](OC(=O)[C@@H](N)C(C)C)CC[C@]4(C)[C@H]3CC[C@]12C [Comparative compound 1 hydrochloride] | 29.9 |  |  |  |  |  |  |  |  | 
6 | [2H]C(C)(C)[C@H](N)C(=O)O[C@@H]1CC[C@@]2(C)[C@@H](CC[C@@H]3[C@@H]2CC[C@]2(C)[C@@H](C(C)=O)CC[C@@H]32)C1 [Compound 1] |  | 1000 | 956 | 874 | 575 | 423 | 352 |  | 5.71 | 
7 | C[C@]12CC[C@H]3[C@@H](CCC4=CC(=O)CC[C@@]43C)[C@@H]1CC[C@@H]2O [Testosterone, testosterone] |  | 1000 | 677 | 379 | 155 | 63 | 44 |  |  | 
8 | [2H]C(N)(C(=O)O[C@@H]1CC[C@@]2(C)[C@@H](CC[C@@H]3[C@@H]2CC[C@]2(C)[C@@H](C(C)=O)CC[C@@H]32)C1)C(C)C (stereo partly drawn) [Compound 3 hydrochloride] | 19 |  |  |  |  |  |  |  |  | 
9 | [2H]C([2H])([2H])C([C@H](N)C(=O)O[C@@H]1CC[C@@]2(C)[C@@H](CC[C@@H]3[C@@H]2CC[C@]2(C)[C@@H](C(C)=O)CC[C@@H]32)C1)C([2H])([2H])[2H] [Compound 2 hydrochloride] | 36.1 |  |  |  |  |  |  |  |  | 
